Test system: asexual P. falciparum 3D7 parasites
Assay: P. falciparum 3D7 growth inhibition assay with LDH activity readout (Assay 1)
Format: cell-based
Details: Plasmodium falciparum; 3D7 strain, 72 h incubation, LDH activity read by absorbance at 650 nm
Method: A modified version of the assay described in Gamo, F. J., Sanz, L. M., Vidal, J., de Cozar, C., Alvarez, E., Lavandera, J. L., Vanderwall, D. E., Green, D. V., Kumar, V., Hasan, S., Brown, J. R., Peishoff, C. E., Cardon, L. R., Garcia-Bustos, J. F., Nature, 465 (2010) 305-310 (Gamo et al.) was used to assess the activity of compounds against asexual P. falciparum 3D7 parasites. Compounds were pre-dispensed in 384-well plates, RPMI/AlbuMAX growth media was added and P. falciparum inoculated. Plates were incubated for 72 h and then frozen at −80° C. overnight. LDH activity was quantified with the modified cofactor 3-acetylpyridine adenine dinucleotide (APAD) (Sigma Aldrich) by measuring absorbance of the tetrazolium indicator nitro blue tetrazolium (NBT) (Sigma Aldrich) at 650 nm.
An inoculum of synchronous P. falciparum (3D7 strain) parasitized red blood cells (PRBC) at 0.7% parasitaemia and 2% haematocrit in RPMI-1640, 5% AlbuMAX, 2% D-sucrose, 0.3% glutamine and 150 μM hypoxanthine was used for the assay.
Compound master plates (384-well) were prepared by a 10 pt serial dilution of compounds, from 1 mM to 50.8 nM, in columns 3-12 and 13-22. DMSO was dispensed into columns 1 and 23 of the compound master plate to be used as the positive growth control (100% viability). […] Intermediate compound dilution plates were prepared by dispensing 1 μl from each well of the compound master plate into 11.5 μl of RPMI/AlbuMAX growth media. Duplicate assay plates (384-well) were then prepared by dispensing 0.5 μL of compound from the intermediate dilution plates into 9.5 μl of RPMI/AlbuMAX growth media. The parasite inoculum (30 μL) was dispensed into the assay plates containing compounds using a Multidrop dispenser (Thermo Scientific) such that the final assay volume was 40 μL and final compound concentration was 1 μM-0.05 nM (the volume of compound addition can be adjusted to the preferred and agreed screening concentration). The final DMSO concentration was 0.1% (ideally 0.2% to limit toxicity to parasites), but this is dependent on volume of compound DMSO stock solution that can be supplied. Plates were incubated at 37° C. for 72 h in an atmosphere of 5% CO2, 5% O2, […].
After 72 h of incubation, plates were frozen at −80° C. overnight and then thawed at room temperature for at least 4 h. To evaluate LDH activity, 45 μL of freshly made reaction mix (174 mM sodium L-lactate (Sigma Aldrich), 214 μM 3-acetyl pyridine adenine dinucleotide (APAD) (Sigma Aldrich), 270 μM nitro blue tetrazolium chloride (NBT) (Sigma Aldrich), 4.35 U/mL diaphorase (from Clostridium kluyveri) (Sigma Aldrich), 0.7% Tween 20, 100 mM Tris-HCl pH 7.5) was dispensed using a Multidrop dispenser (Thermo Scientific). Plates were shaken to ensure mixing and absorbance at 650 nm was monitored using a Perkin Elmer Envision plate reader after 30 min of incubation at room temperature. Data were normalized to percent growth inhibition using positive and negative controls, and analysed using TIBCO Spotfire software. […]

Row | SMILES | IC50 [nM]
1 | CC(C)CC[C@]1(c2ccccc2)NC(=N)N(Cc2ccc(C(C)(C)C)c(C(=O)NCc3cccnc3)c2)C1=O [Compound 11] | 172
2 | CC(=O)N1CCN(C(=O)c2cc(F)cc(CN3C(=N)NC(c4ccccc4)(c4ccccc4)C3=O)c2)CC1 [Compound 1] | 4.5
3 | CC(C)CC[C@]1(c2ccccc2)NC(=N)N(Cc2ccc(C(C)(C)C)c(C(=O)N(C)Cc3ccon3)c2)C1=O [Compound 10] | 120
4 | CC(C)CC[C@]1(c2ccccc2)NC(=N)N(Cc2ccc(C(C)(C)C)c(C(=O)N(C)Cc3noc(C4CC4)n3)c2)C1=O [Compound 17] | 310
5 | Cc1ccc(C2(CCC(C)C)NC(=N)N(Cc3ccc(C(C)(C)C)c(C(=O)N4Cc5cncnc5C4)c3)C2=O)cc1 (stereo not shown) [Compound 14] | 225
6 | CC(C)CC[C@]1(c2ccccc2)NC(=N)N(Cc2ccc(C(F)(F)F)c(C(=O)N3CC(O)C(F)C3)c2)C1=O (stereo partly shown) [Compound 3] | 9.6
7 | CC(C)CC[C@]1(c2ccccc2)NC(=N)N(Cc2ccc(C(C)(C)C)c(C(=O)N3CCn4ccnc4C3)c2)C1=O [Compound 5] | 21.2
8 | Cc1ccc([C@@]2(CC3CC3)NC(=N)N(Cc3ccc(C(C)(C)C)c(C(=O)N4CCC(C)(C)C4)c3)C2=O)cc1 [Compound 9] | 86.6
9 | CC(C)(C)c1ccc(CN2C(=N)NC(c3ccccc3)(c3ccccc3)C2=O)cc1C(=O)N1Cc2nccnc2C1 [Compound 15] | 239
10 | Cc1ccc(C2(C3CCCCC3)NC(=N)N(Cc3ccc(C(C)(C)C)c(C(=O)N4Cc5ccccc5C4)c3)C2=O)cc1 (stereo not shown) [Compound 12] | 221
11 | CC(C)CC[C@]1(c2ccccc2)NC(=N)N(Cc2ccc(C(C)(C)C)c(C(=O)N3CCOC[C@@H]3C)c2)C1=O [Compound 8] | 56.6
12 | N=C1NC(C[C@@H]2CCCO2)(c2ccccc2)C(=O)N1Cc1ccc(C(F)(F)F)c(C(=O)N2Cc3nccnc3C2)c1 (stereo partly shown) [Compound 2] | 5.8
13 | Cc1cc(CN2C(=N)NC(c3ccccc3)(c3ccccc3)C2=O)cc(C(=O)N2CCNC(=O)C2)c1 [Compound 20] | 356
14 | CCOC(=O)NC1CCN(C(=O)c2cc(C)cc(CN3C(=N)NC(c4ccccc4)(c4ccccc4)C3=O)c2)CC1 [Compound 18] | 313
15 | Cc1ccc(CN2C(=N)NC(CC(C)C)(c3ccccc3)C2=O)cc1C(=O)NC1CC1 (stereo not shown) [Compound 16] | 240
16 | Cc1ccc(C2(c3ccc(C)cc3)NC(=N)N(Cc3ccc(C(C)(C)C)c(C(=O)N4Cc5nccnc5C4)c3)C2=O)cc1 [Compound 13] | 223
17 | N=C1NC(c2ccc(F)cc2)(C2CCCCC2)C(=O)N1Cc1ccc(C(F)(F)F)c(C(=O)N2Cc3nccnc3C2)c1 (stereo not shown) [Compound 4] | 9.7
18 | CC(C)CC[C@]1(c2ccccc2)NC(=N)N([C@@H]2CCc3ccc(C(=O)N4Cc5nccnc5C4)cc32)C1=O [Compound 6] | 21.8
19 | CC(C)CC[C@]1(c2ccccc2)NC(=N)N(Cc2ccc(C(C)(C)C)c(C(=O)N(C)C(C)c3ccncc3)c2)C1=O (stereo partly shown) [Compound 7] | 25.1
